Marks after values point to notes of the source that are not given here.
Key:
[1] = system: HCT116 cells; assay: ROS measurement with H2DCFDA before/after UVA 125 mJ/cm^2; assay type: cell-based, Human; details: CX-5461 0.1 μM or PDS 10 μM for 1 h
Procedure: ROS measurement with H2DCFDA: HCT116 cells were treated with vehicle, CX-5461 0.1 μM or PDS 10 μM for 1 h, then were added with H2DCFDA for 45 min before initial fluorescence measurement. Cells were then irradiated with UVA 125 mJ/cm^2, and immediately sent for a second fluorescent measurement. The ratio of the second and the first fluorescent measurement was calculated as the level of ROS induced by UVA. Assays were performed in the 1-hour time frame within which UV damage manifests, in contrast to G4 ligand-induced damage which takes 3–4 h to be measurable.
Supplementary Figures and Tables
Supplementary Figure 1. UVA radiation increased double-stranded DNA breaks and ROS.
Representative pictures of g -H2AX immunofluorescent staining with and without UVA radiation, for […]
condition, quantified in (b) Quantile and mean intensity of g-H2AX level per cell, vertical axis. UV and drug factor conditions, horizontal axis. Experiments were repeated two times (biological duplicates) and similar results were obtained. Number of cells as in Figure 5 g (c) The ratio of ROS level measured after UVA irradiation versus before UVA irradiation was calculated. Biological triplicates. The horizontal bar = median. ***P<0.0001, Welch’s t-test; n=8
(1 picture or pasted object on this page, not shown here)

[2] = system: patients with advanced solid tumors; assay: Phase I dose escalation: safety, tolerability, dose-limiting toxicity (CTCAE v4.0)
Excerpt: Doses were escalated using a 3 + 3 design, which allowed 3 or 4 patients to be initially enrolled in each dose level. […] The MAD was defined as the dose level at which ≥2/3 or ≥2/6 patients experienced dose-limiting toxicity. The RP2D was defined as the next lower dose below the MAD.
DLT included the following drug-related AEs occurring during cycle 1: grade 3 phototoxicity or grade 2 phototoxicity with blistering lasting ≥7 days, if adequate prevention was used; other grades 3 or 4 non-hematologic toxicity (excluding inadequately managed nausea and vomiting, alopecia or grade 3 fatigue lasting <7 days); grade 4 myelosuppression ≥7 days, febrile neutropenia or ≥grade 3 thrombocytopenic bleeding; or other toxicities of concern including those requiring ≥14 days delay in next cycle.
The starting dose was 50 mg/m^2 d1 and 8. An expansion cohort at the RP2D of 10-20 patients with breast cancer and BRCA1/2 (germline) or relevant somatic aberrations was planned.
AEs were assessed according to National Cancer Institute Common Terminology Criteria for Adverse Events (CTCAE) v4.0.

[3] = 325 mg/m^2 d1,8,15, N patients 4
[4] = 650 mg/m^2 d1,8,15, N patients 5
[5] = 40 treated patients, all dose levels
[6] = 475* mg/m^2 d1,8,15, N patients 6

Cc1cnc(CNC(=O)c2c(=O)c3ccc(N4CCCN(C)CC4)nc3n3c2sc2ccccc23)cn1 [CX-5461]
ROS in the presence of UVA (ratio after/before UVA) [1]: markedly increased | Diarrhea, any causality, all grades (patients) ([2]; 50 mg/m^2 d1,8, N patients 4): 2 | Dry eye, any causality, all grades (patients) ([2]; 50 mg/m^2 d1,8, N patients 4): 1 | Fatigue, any causality, all grades (patients) ([2]; 50 mg/m^2 d1,8, N patients 4): 4 | Headache, any causality, all grades (patients) ([2]; 50 mg/m^2 d1,8, N patients 4): 1 | Nausea, any causality, all grades (patients) ([2]; 50 mg/m^2 d1,8, N patients 4): 3 | Palmar–plantar erythrodysesthesia syndrome, any causality, all grades (patients) ([2]; 50 mg/m^2 d1,8, N patients 4): 1 | Phototoxicity, any causality, all grades (patients) ([2]; 50 mg/m^2 d1,8, N patients 4): 2 | Phototoxicity, number in parentheses (undefined in table; fits grade 3–4 count) ([2]; 50 mg/m^2 d1,8, N patients 4): 1 | Diarrhea, any causality, all grades (patients) ([2]; 100 mg/m^2 d1,8, N patients 4): 1 | Dry eye, any causality, all grades (patients) ([2]; 100 mg/m^2 d1,8, N patients 4): 1 | Eye phototoxicity, any causality, all grades (patients) ([2]; 100 mg/m^2 d1,8, N patients 4): 1 | Fatigue, any causality, all grades (patients) ([2]; 100 mg/m^2 d1,8, N patients 4): 3 | Headache, any causality, all grades (patients) ([2]; 100 mg/m^2 d1,8, N patients 4): 3 | Mucositis oral, any causality, all grades (patients) ([2]; 100 mg/m^2 d1,8, N patients 4): 2 | Nausea, any causality, all grades (patients) ([2]; 100 mg/m^2 d1,8, N patients 4): 3 | Palmar–plantar erythrodysesthesia syndrome, any causality, all grades (patients) ([2]; 100 mg/m^2 d1,8, N patients 4): 1 | Phototoxicity, any causality, all grades (patients) ([2]; 100 mg/m^2 d1,8, N patients 4): 1 | Diarrhea, any causality, all grades (patients) ([2]; 150 mg/m^2 d1,8, N patients 4): 1 | Dry eye, any causality, all grades (patients) ([2]; 150 mg/m^2 d1,8, N patients 4): 2 | Fatigue, any causality, all grades (patients) ([2]; 150 mg/m^2 d1,8, N patients 4): 3 | Headache, any causality, all grades (patients) ([2]; 150 mg/m^2 d1,8, N patients 4): 2 | Mucositis oral, any causality, all grades (patients) ([2]; 150 mg/m^2 d1,8, N patients 4): 1 | Nausea, any causality, all grades (patients) ([2]; 150 mg/m^2 d1,8, N patients 4): 4 | Palmar–plantar erythrodysesthesia syndrome, any causality, all grades (patients) ([2]; 150 mg/m^2 d1,8, N patients 4): 1 | Phototoxicity, any causality, all grades (patients) ([2]; 150 mg/m^2 d1,8, N patients 4): 1 | ALT, Grade 3 or 4 (patients) ([2]; 150 mg/m^2 d1,8, N pts 4): 2 | AST, Grade 3 or 4 (patients) ([2]; 150 mg/m^2 d1,8, N pts 4): 2 | Alkaline phosphatase, Grade 3 or 4 (patients) ([2]; 150 mg/m^2 d1,8, N pts 4): 1 | Bilirubin, Grade 3 or 4 (patients) ([2]; 150 mg/m^2 d1,8, N pts 4): 1 | Neutropenia, Grade 3 or 4 (patients) ([2]; 150 mg/m^2 d1,8, N pts 4): 1 | Thrombocytopenia, Grade 3 or 4 (patients) ([2]; 150 mg/m^2 d1,8, N pts 4): 1 | Diarrhea, any causality, all grades (patients) ([2]; 200 mg/m^2 d1,8, N patients 4): 2 | Dry eye, any causality, all grades (patients) ([2]; 200 mg/m^2 d1,8, N patients 4): 1 | Fatigue, any causality, all grades (patients) ([2]; 200 mg/m^2 d1,8, N patients 4): 2 | Nausea, any causality, all grades (patients) ([2]; 200 mg/m^2 d1,8, N patients 4): 3 | Phototoxicity, any causality, all grades (patients) ([2]; 200 mg/m^2 d1,8, N patients 4): 2 | ALT, Grade 3 or 4 (patients) ([2]; 200 mg/m^2 d1,8, N pts 4): 1 | AST, Grade 3 or 4 (patients) ([2]; 200 mg/m^2 d1,8, N pts 4): 1 | Anemia, Grade 3 or 4 (patients) ([2]; 200 mg/m^2 d1,8, N pts 4): 1 | Fatigue, any causality, all grades (patients) ([2]; 250 mg/m^2 d1,8, N patients 3): 2 | Headache, any causality, all grades (patients) ([2]; 250 mg/m^2 d1,8, N patients 3): 1 | Mucositis oral, any causality, all grades (patients) ([2]; 250 mg/m^2 d1,8, N patients 3): 1 | Nausea, any causality, all grades (patients) ([2]; 250 mg/m^2 d1,8, N patients 3): 2 | Palmar–plantar erythrodysesthesia syndrome, any causality, all grades (patients) ([2]; 250 mg/m^2 d1,8, N patients 3): 2 | Phototoxicity, any causality, all grades (patients) ([2]; 250 mg/m^2 d1,8, N patients 3): 3 | Phototoxicity, number in parentheses (undefined in table; fits grade 3–4 count) ([2]; 250 mg/m^2 d1,8, N patients 3): 1 | Dry eye, any causality, all grades (patients) [2, 3]: 1 | Eye phototoxicity, any causality, all grades (patients) [2, 3]: 1 | Fatigue, any causality, all grades (patients) [2, 3]: 2 | Nausea, any causality, all grades (patients) [2, 3]: 1 | Palmar–plantar erythrodysesthesia syndrome, any causality, all grades (patients) [2, 3]: 1 | Phototoxicity, any causality, all grades (patients) [2, 3]: 4 | Phototoxicity, number in parentheses (undefined in table; fits grade 3–4 count) [2, 3]: 1 | AST, Grade 3 or 4 (patients) ([2]; 325 mg/m^2 d1,8,15, N pts 4): 1 | Neutropenia, Grade 3 or 4 (patients) ([2]; 325 mg/m^2 d1,8,15, N pts 4): 1 | Diarrhea, any causality, all grades (patients) ([2]; 325 mg/m^2 d1,8, N patients 3): 1 | Fatigue, any causality, all grades (patients) ([2]; 325 mg/m^2 d1,8, N patients 3): 3 | Fatigue, number in parentheses (undefined in table; fits grade 3–4 count) ([2]; 325 mg/m^2 d1,8, N patients 3): 1 | Nausea, any causality, all grades (patients) ([2]; 325 mg/m^2 d1,8, N patients 3): 2 | Nausea, number in parentheses (undefined in table; fits grade 3–4 count) ([2]; 325 mg/m^2 d1,8, N patients 3): 1 | Palmar–plantar erythrodysesthesia syndrome, any causality, all grades (patients) ([2]; 325 mg/m^2 d1,8, N patients 3): 1 | Phototoxicity, any causality, all grades (patients) ([2]; 325 mg/m^2 d1,8, N patients 3): 1 | Eye phototoxicity, any causality, all grades (patients) ([2]; 475 mg/m^2 d1,8, N patients 3): 1 | Fatigue, any causality, all grades (patients) ([2]; 475 mg/m^2 d1,8, N patients 3): 2 | Mucositis oral, any causality, all grades (patients) ([2]; 475 mg/m^2 d1,8, N patients 3): 1 | Nausea, any causality, all grades (patients) ([2]; 475 mg/m^2 d1,8, N patients 3): 1 | Palmar–plantar erythrodysesthesia syndrome, any causality, all grades (patients) ([2]; 475 mg/m^2 d1,8, N patients 3): 1 | Phototoxicity, any causality, all grades (patients) ([2]; 475 mg/m^2 d1,8, N patients 3): 3 | Diarrhea, any causality, all grades (patients) [2, 4]: 1 | Dry eye, any causality, all grades (patients) [2, 4]: 1 | Eye phototoxicity, any causality, all grades (patients) [2, 4]: 3 | Fatigue, any causality, all grades (patients) [2, 4]: 3 | Fatigue, number in parentheses (undefined in table; fits grade 3–4 count) [2, 4]: 1 | Headache, any causality, all grades (patients) [2, 4]: 1 | Mucositis oral, any causality, all grades (patients) [2, 4]: 2 | Nausea, any causality, all grades (patients) [2, 4]: 3 | Palmar–plantar erythrodysesthesia syndrome, any causality, all grades (patients) [2, 4]: 1 (1) | Palmar–plantar erythrodysesthesia syndrome, number in parentheses (undefined in table; fits grade 3–4 count) [2, 4]: 1 (1) | Phototoxicity, any causality, all grades (patients) [2, 4]: 3 | Phototoxicity, number in parentheses (undefined in table; fits grade 3–4 count) [2, 4]: 1 | Alkaline phosphatase, Grade 3 or 4 (patients) ([2]; 650 mg/m^2 d1,8,15, N pts 5): 1 | Neutropenia, Grade 3 or 4 (patients) ([2]; 650 mg/m^2 d1,8,15, N pts 5): 2 | toxicity to ionizing radiation ([2]; 13 patients who received radiotherapy during or following treatment): no excess toxicity to ionizing radiation | Treatment-related Dry eye, Grade 3–4, % ([2]; 40 treated patients): 0% | Treatment-related Dry eye, Total, % ([2]; 40 treated patients): 10% | Treatment-related Eye phototoxicity, Grade 1–2, % ([2]; 40 treated patients): 20% | Treatment-related Eye phototoxicity, Grade 3–4, % ([2]; 40 treated patients): 0% | Treatment-related Eye phototoxicity, Total, % ([2]; 40 treated patients): 20% | Treatment-related Headache, Grade 1–2, % ([2]; 40 treated patients): 12.5% | Treatment-related Headache, Grade 3–4, % ([2]; 40 treated patients): 0% | Treatment-related Headache, Total, % ([2]; 40 treated patients): 12.5% | Treatment-related Mucositis oral, Grade 1–2, % ([2]; 40 treated patients): 15% | Treatment-related Mucositis oral, Grade 3–4, % ([2]; 40 treated patients): 0% | Treatment-related Mucositis oral, Total, % ([2]; 40 treated patients): 15% | Treatment-related Nausea, Grade 1–2, % ([2]; 40 treated patients): 42.5% | Treatment-related Nausea, Grade 3–4, % ([2]; 40 treated patients): 2.5% | Treatment-related Nausea, Total, % ([2]; 40 treated patients): 45% | Treatment-related Palmar–plantar erythrodysesthesia, Grade 1–2, % ([2]; 40 treated patients): 20% | Treatment-related Palmar–plantar erythrodysesthesia, Grade 3–4, % ([2]; 40 treated patients): 2.5% | Treatment-related Palmar–plantar erythrodysesthesia, Total, % ([2]; 40 treated patients): 22.5% | Treatment-related Phototoxicity (skin), Grade 3–4, % ([2]; 40 treated patients): 15% | Treatment-related Phototoxicity (skin), Total, % ([2]; 40 treated patients): 60% | grade 3 or 4 related AE: nausea [2, 5]: 2.5% | grade 3 or 4 related AE: palmar–plantar erythrodysesthesia syndrome [2, 5]: 2.5% | grade 3 or 4 related AE: skin phototoxicity [2, 5]: 15% | Diarrhea, any causality, all grades (patients) [2, 6]: 1 | Eye phototoxicity, any causality, all grades (patients) [2, 6]: 2 | Fatigue, any causality, all grades (patients) [2, 6]: 5 | Fatigue, number in parentheses (undefined in table; fits grade 3–4 count) [2, 6]: 2 | Headache, any causality, all grades (patients) [2, 6]: 2 | Nausea, any causality, all grades (patients) [2, 6]: 6 | Palmar–plantar erythrodysesthesia syndrome, any causality, all grades (patients) [2, 6]: 1 | Phototoxicity, any causality, all grades (patients) [2, 6]: 4 | Phototoxicity, number in parentheses (undefined in table; fits grade 3–4 count) [2, 6]: 2 | Anemia, Grade 3 or 4 (patients) ([2]; 475* mg/m^2 d1,8,15, N pts 6): 2 | Dose-limiting toxicities (number) ([2]; Dose level 9, 650 mg/m^2/dose, Day 1, 8 & 15 Q4 weeks, 5 enrolled, one occurred after cycle 1): 2 ** | maximal administered dose (MAD) ([2]; d1, 8, 15 (DL9)): 650 mg/m^2 | recommended phase II dose (RP2D) ([2]; days 1, 8 and 15 every 4 weeks, 60-minute intravenous infusion): 475 mg/m^2 | SAEs considered related to CX-5461 ([2]; grade 3 phototoxicity (DL0), grade 2 eye phototoxicity (DL8), grade 3 phototoxicity (DL8)): 3 | serious AEs (SAEs) reported ([2]; in 13 patients): Sixteen | dose-limiting toxicity (kind) ([2]; in vivo): phototoxicity | participants with dose omission because of phototoxicity ([2]; in vivo): six | participants with dose reductions because of phototoxicity ([2]; in vivo): two | patients discontinuing therapy because of phototoxicity ([2]; in vivo): one

From paper PMC9232501, “Results of the phase I CCTG IND.231 trial of CX-5461 in patients with advanced solid tumors enriched for DNA-repair deficiencies” (Nature Communications, 2022)
